The values below come from patent publication US20090163521A1, “Novel Pyrazolopyrimidinone Derivatives” (ORCHID RESEARCH LABORATORIES LIMITED, priority 2005, published 2009).

One may read the inhibition as the change of the read-out against control, counted positive when it falls.

Common to all, as to type: cell-based
One assay concerns the target T1, COX-2 (Homo sapiens, UniProt P35354).
T1 construct: Fresh blood was collected in tubes containing sodium heparin by vein puncture from healthy male volunteers; endogenous in cells; host or cells: human whole blood from healthy male volunteers, aspirin-pretreated and LPS-stimulated
T1 sequence (P35354 18-604): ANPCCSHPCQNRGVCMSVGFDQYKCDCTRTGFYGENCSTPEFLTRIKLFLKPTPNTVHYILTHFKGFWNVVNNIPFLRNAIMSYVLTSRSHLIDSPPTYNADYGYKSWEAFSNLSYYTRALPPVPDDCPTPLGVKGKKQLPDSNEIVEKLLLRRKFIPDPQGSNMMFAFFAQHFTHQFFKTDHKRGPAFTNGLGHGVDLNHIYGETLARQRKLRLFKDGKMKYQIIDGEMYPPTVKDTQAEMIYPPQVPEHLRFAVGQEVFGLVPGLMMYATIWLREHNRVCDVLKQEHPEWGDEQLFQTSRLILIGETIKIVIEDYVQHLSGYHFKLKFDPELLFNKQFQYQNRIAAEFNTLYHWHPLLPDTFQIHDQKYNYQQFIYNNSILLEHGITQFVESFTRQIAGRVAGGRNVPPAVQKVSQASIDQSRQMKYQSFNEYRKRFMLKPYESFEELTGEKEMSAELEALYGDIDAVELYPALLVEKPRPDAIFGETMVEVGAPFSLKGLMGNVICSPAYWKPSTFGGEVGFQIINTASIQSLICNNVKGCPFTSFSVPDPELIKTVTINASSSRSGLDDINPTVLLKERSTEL
The assay is described as follows: Human whole blood assay (LPS-induced PGE2, COX-2 inhibition). Conditions: LPS stimulated. On the procedure: Human whole blood provides a protein and cell rich milieu appropriate for the study of biochemical efficacy of anti-inflammatory compounds such as selective COX-2 inhibitors. […] This is correlating with the observation that COX-2 inhibitors have no effect on prostaglandin E2 (PGE2) production in normal blood. These inhibitors were active only after incubation of human blood with lipopolysaccharide (LPS), which induces COX-2 production in the blood.
Fresh blood was collected in tubes containing sodium heparin by vein puncture from healthy male volunteers. The subjects should have no apparent inflammatory conditions and not taken NSAIDs for at least 7 days prior to blood collection. Blood was preincubated with aspirin in vitro (12 μg/ml, at time zero) to inactivate COX-1 for 6 hours. Then test compounds (at various concentrations) or vehicle were added to blood. After that blood was stimulated with LPS B:4 (10 μg/ml) and incubated for another 18 h at 37° C. water bath. After which the blood was centrifuged, plasma was separated and stored at −80° C. (J. Pharmacol. Exp. Ther, 271, 1705, 1994; Proc. Natl. Acad. Sci. USA, 96, 7563, 1999). The plasma was assayed for PGE2 using Cayman ELISA kit as per the procedure outlined by the manufacturer (Cayman Chemicals, Ann Arbor, USA).

The next assay has as its system NCI-H460. Description: DTP human tumor cell line screen, NCI-H460. Conditions: 100 μM; 48 hours; percent growth of control. On the procedure: (§1) The current assay utilizes a 384 well plate format and fluorescent staining technologies resulting in greater screening capacity for testing of synthetic samples.
(§2) The cell lines of the cancer-screening panel are grown in RPMI 1640 medium containing 5% fetal bovine serum and 2 mM L-glutamine. For a typical screening experiment, cells are inoculated into 96 well microtiter plates in 100 μL. After cell inoculation, the micro-titer plates are incubated at 37° C., 5% CO2, 95% air and 100% relative humidity for 24 h prior to addition of experimental drugs. The cells are plated a densities of 5000 cells/well (MCF7), 1000 cells/well (NCI-H460), and 7500 cells/well (SF-268) to allow for varying doubling time of the cell lines. Each plate contains all three-cell lines, a series of dilutions of standard agents, total kill wells and appropriate controls. Plates are incubated under standard conditions for 24 hours prior to addition of experimental compounds or extracts.
(§3) Experimental compounds are solubilized in dimethyl sulfoxide (DMSO) at 400-times the desired maximum test concentration (maximum final DMSO concentration of 0.25%) and stored frozen. Compounds are then diluted with complete media with 0.1% gentamicin sulfate (5 μl of test sample in 100% DMSO is added to 565 μl of complete medium). 20 μl of this solution is then dispensed into test wells containing 50 μl of cell suspension to yield a test concentration of 1.00E-04M.
(§4) After compound addition, plates are incubated at standard conditions for 48 hours, 10 μl/well Alamar Blue is added and the plates are incubated for an additional 4 hours. Fluorescence is measured using an excitation wavelength of 530 nm and an emission wavelength of 590 nm.
(§5) Percent growth is calculated on a plate-by-plate basis for test wells relative to control wells. Percent Growth is expressed as the ratio of fluorescence of the test well to the average fluorescence of the control wells ×100.

In the next assay the test system is MCF-7. Description: DTP human tumor cell line screen, MCF-7. The following applies: 100 μM; 48 hours; percent growth of control. On the procedure: as §1, §2, §3, §4, §5
A further assay concerns SF-268. The assay is described as follows: DTP human tumor cell line screen, SF-268. The following applies: 100 μM; 48 hours; percent growth of control. As for the experimental part:
as §1, §2, §3, §4, §5

For another assay, the system named is TNF-α. The assay is described as follows: In vitro measurement of TNF-α in LPS-stimulated human PBMC. Conditions: LPS 1 μg/ml, 18 h. On the procedure:
This assay determines the effect of test compounds on the production of TNF α in human Peripheral Blood Mononuclear Cells (PBMC). Compounds were tested for their ability to inhibit the activity of TNF α in human PBMC. PBMC were isolated from blood (from healthy volunteers) using BD Vacutainer CPT™ (Cell preparation tube, BD Bio Science) and suspended in RPMI medium (Physiol. Res. 52: 593-598, 2003). The test compounds were pre-incubated with PBMC (0.5 million/incubation well) for 15 minutes at 37° C. and then stimulated with Lipopolysaccharide (Escherichia coli: B4; 1 μg/ml) for 18 h at 37° C. in 5% CO2. The levels of TNFα in cell culture medium were estimated using enzyme linked Immunosorbent assay performed in a 96 well format as per the procedure of the manufacturer (Cayman Chemical, Ann Arbor, USA).

The structures appear in SMILES notation.

For the compound `CSc1ccc(-n2c(-c3ccc(F)cc3)nc3[nH]nc(N)c3c2=O)cc1` [Example 5, 3-Amino-5-[(4-methylthio)phenyl]-6-(4-fluorophenyl)-1,5-dihydro-4H-pyrazolo[3,4-d]pyrimidin-4-one], the inhibition at 10 µM at COX-2 was determined as 31.8%.
At COX-2, `CSc1ccc(-c2nc3[nH]nc(N)c3c(=O)n2-c2ccc(C(C)(C)C)cc2)cc1` [Example 6, 3-Amino-5-(4-tert-butylphenyl)-6-[4-(methylthio)phenyl]-1,5-dihydro-4H-pyrazolo[3,4-d]pyrimidin-4-one] yielded an inhibition at 0.25 µM of 18.6% and an inhibition at 10 µM of 37.7%. The “% T/C Lung (NCI-H460)” value with NCI-H460 is recorded as 0%. Further, the “% T/C Breast (MCF-7)” value with MCF-7 came out at 0%. Besides, the “% T/C CNS (SF-268)” value with SF-268 amounted to 1%.
At COX-2, `CSc1ccc(-n2c(-c3ccc(Cl)cc3)nc3[nH]nc(N)c3c2=O)cc1` [Example 8, 3-Amino-5-[(4-methylthio)phenyl]-6-(4-chlorophenyl)-1,5-dihydro-4H-pyrazolo[3,4-d]pyrimidin-4-one] had an inhibition at 0.25 µM of 28.3%. Also, the “% T/C Lung (NCI-H460)” value in the assay on NCI-H460 was determined as 2%. Moreover, in the assay with MCF-7, the “% T/C Breast (MCF-7)” value is recorded as 26%. For the same compound, in the assay with SF-268, the “% T/C CNS (SF-268)” value is on record as 36%.
`CSc1ccc(-c2nc3[nH]nc(N)c3c(=O)n2-c2ccc(Cl)cc2)cc1` [Example 9, 3-Amino-5-(4-chlorophenyl)-6-[(4-methylthio)phenyl]-1,5-dihydro-4H-pyrazolo[3,4-d]pyrimidin-4-one] displayed an inhibition at 10 µM at COX-2 of 27.1%. For the same compound, the “% T/C Lung (NCI-H460)” value in the assay with NCI-H460 is 4%. For the same compound, in the assay on MCF-7, the “% T/C Breast (MCF-7)” value is 9%. Besides, the “% T/C CNS (SF-268)” value with SF-268 was determined as 31%.
Regarding `CCc1ccc(-n2c(-c3ccc(SC)cc3)nc3[nH]nc(N)c3c2=O)cc1` [Example 10, 3-Amino-5-(4-ethylphenyl)-6-[(4-methylthio)phenyl]-1,5-dihydro-4H-pyrazolo[3,4-d]pyrimidin-4-one], the “% T/C Lung (NCI-H460)” value in the assay with NCI-H460 is 4%. The “% T/C Breast (MCF-7)” value in the assay with MCF-7 came to 22%. Also, the “% T/C CNS (SF-268)” value in the assay with SF-268 is 10%.
For the compound `CSc1ccc(-n2c(-c3ccccc3)nc3[nH]nc(N)c3c2=O)cc1` [Example 11, 3-Amino-5-[(4-methylthio)phenyl]-6-phenyl-1,5-dihydro-4H-pyrazolo[3,4-d]pyrimidin-4-one], 10 µM produced 29.2% inhibition on COX-2.
In turn, `Nc1n[nH]c2nc(-c3ccccc3)n(-c3ccc(F)cc3)c(=O)c12` [Example 12, 3-Amino-5-(4-fluorophenyl)-6-phenyl-1,5-dihydro-4H-pyrazolo[3,4-d]pyrimidin-4-one] displayed an inhibition at 0.25 µM on COX-2 of 26.2%.
For `CSc1ccc(-n2c(-c3ccc(C)cc3)nc3[nH]nc(N)c3c2=O)cc1` [Example 13, 3-Amino-5-[(4-methylthio)phenyl]-6-(4-methylphenyl)-1,5-dihydro-4H-pyrazolo[3,4-d]pyrimidin-4-one], at COX-2, at 0.25 µM the inhibition was 26.8%.
Take `Cc1ccc(-n2c(-c3ccc(S(C)(=O)=O)cc3)nc3[nH]nc(N)c3c2=O)cc1` [Example 14, 3-Amino-5-(4-methylphenyl)-6-[(4-methylsulfonyl)phenyl]-1,5-dihydro-4H-pyrazolo[3,4-d]pyrimidin-4-one]: on COX-2, 0.25 µM produced 19.3% inhibition and the inhibition at 10 µM was determined as 23%.
For the compound `CCOc1ccc(-n2c(-c3ccc(SC)cc3)nc3[nH]nc(N)c3c2=O)cc1` [Example 15, 3-Amino-5-(4-ethoxyphenyl)-6-[(4-methylthio)phenyl]-1,5-dihydro-4H-pyrazolo[3,4-d]pyrimidin-4-one], the inhibition at 0.25 µM at COX-2 came out at 20.2%.
Consider `Cc1ccc(-n2c(-c3ccccc3)nc3[nH]nc(N)c3c2=O)cc1` [Example 16, 3-Amino-5-(4-methylphenyl)-6-phenyl-1,5-dihydro-4H-pyrazolo[3,4-d]pyrimidin-4-one], for which at 0.25 µM the inhibition against COX-2 was 31.4%.
As for `CSc1ccc(-n2c(-c3ccc(C(F)(F)F)cc3)nc3[nH]nc(N)c3c2=O)cc1` [Example 17, 3-Amino-5-[(4-methylthio)phenyl]-6-(4-trifluoromethylphenyl)-1,5-dihydro-4H-pyrazolo[3,4-d]pyrimidin-4-one], on COX-2, the inhibition at 0.25 µM was 19.4% and 10 µM produced 36.5% inhibition. Further, the “% T/C Lung (NCI-H460)” value in the assay on NCI-H460 is 25%. In addition, the “% T/C Breast (MCF-7)” value in the assay with MCF-7 came out at 0%. Besides, the “% T/C CNS (SF-268)” value in the assay on SF-268 is listed as 0%.
Consider `CSc1ccc(-c2nc3c(c(N)nn3C)c(=O)n2-c2ccc(F)cc2)cc1` [Example 25, 3-Amino-5-(4-fluorophenyl)-1-methyl-6-[4-(methylthio)phenyl]-1,5-dihydro-4H-pyrazolo[3,4-d]pyrimidin-4-one], for which the inhibition at 10 µM in the assay with TNF-α is 52.9%.
`CSc1ccc(-c2nc3c(c(N)nn3C)c(=O)n2-c2ccc(Br)cc2)cc1` [Example 30, 3-Amino-5-(4-bromophenyl)-1-methyl-6-[4-(methylthio)phenyl]-1,5-dihydro-4H-pyrazolo[3,4-d]pyrimidin-4-one] gave an inhibition at 10 µM with TNF-α of 86.6%.
In turn, `COc1ccc(-n2c(-c3ccc(N(C)C)cc3)nc3c(c(N)nn3C)c2=O)cc1` [Example 31, 3-Amino-6-[4-(dimethylamino)phenyl]-5-(4-methoxyphenyl)-1-methyl-1,5-dihydro-4H-pyrazolo[3,4-d]pyrimidin-4-one] registered an inhibition at 10 µM in the assay with TNF-α of 87.9%.
As to `CSc1ccc(-c2nc3c(c(N)nn3C(C)=O)c(=O)n2-c2ccc(C)c(C)c2)cc1` [Example 37, 1-Acetyl-3-amino-5-(3,4-dimethylphenyl)-6-[(4-methylthio)phenyl]-1,5-dihydro-4H-pyrazolo[3,4-d]pyrimidin-4-one], the inhibition at 10 µM in the assay on TNF-α was determined as 29.9%.
